# Source: patent US20030118577A1, “Use of analogues of superoxide dismutase for treating hepatocellular insufficiencies” (priority 2000, published 2003)
# Tested on: acute hepatic insufficiency induced by acetaminophen
# Experiment: Survival of mice after intraperitoneal acetaminophen (acute hepatic insufficiency)
# Method: The intraperitoneal injection of acetaminophen into mice induces a severe hepatotoxicity, the degree of which may be evaluated by the survival of the animals, measuring transaminase activities, and macroscopic and microscopic examination of the livers.
# The acetaminophen in solution at 100 mg/ml in PBS at pH 7.4 is administered by the intraperitoneal route.
# In a first series of experiments, a group of mice received a dose of 1000 mg/kg of acetaminophen; a second group received a dose of 1000 mg/kg of acetaminophen and a dose of 10 mg/kg of MnTBAP administered either 2 h before the acetaminophen or 6 h after; a control group received either MnTBAP alone (10 mg/kg), or PBS alone.
# The survival of the animals is monitored for 24 hours after the administration of acetaminophen.
# The effect of N-acetyl-L-cysteine (NAC), of CuDIPS, and of MnTBAP on the survival of mice after intraperitoneal injection of 1000 mg/kg of acetaminophen (APAP) was compared.
# MnTBAP, NAC, or CuDIPS are administered in the form of a bolus, preventively, 2 hours before (P) or, curatively, 6 hours after (C) the acetaminophen.
# The survival of the animals is monitored for 24 hours after administration of acetaminophen.
smiles,measurement,setting,value
"CC(=O)N[C@@H](CS)C(=O)O [NAC, N-acetyl-L-cysteine]","activity on survival, curative versus preventive administration","APAP 1000 mg/kg, 6 hours after (C) or 2 hours before (P)",only active preventively
same,percentage of surviving animals,"Group X: APAP 1000 mg/kg, NAC 100 mg/kg (P), time 0 h",100%
same,percentage of surviving animals,"Group X: APAP 1000 mg/kg, NAC 100 mg/kg (P), time 6 h",100%
same,percentage of surviving animals,"Group X: APAP 1000 mg/kg, NAC 100 mg/kg (P), time 8 h",100%
same,percentage of surviving animals,"Group X: APAP 1000 mg/kg, NAC 100 mg/kg (P), time 9 h",100%
same,percentage of surviving animals,"Group X: APAP 1000 mg/kg, NAC 100 mg/kg (P), time 10 h",100%
same,percentage of surviving animals,"Group X: APAP 1000 mg/kg, NAC 100 mg/kg (P), time 11 h",100%
same,percentage of surviving animals,"Group X: APAP 1000 mg/kg, NAC 100 mg/kg (P), time 12 h",100%
same,percentage of surviving animals,"Group X: APAP 1000 mg/kg, NAC 100 mg/kg (P), time 13 h",100%
same,percentage of surviving animals,"Group X: APAP 1000 mg/kg, NAC 100 mg/kg (P), time 14 h",90%
same,percentage of surviving animals,"Group X: APAP 1000 mg/kg, NAC 100 mg/kg (P), time 15 h",80%
same,percentage of surviving animals,"Group X: APAP 1000 mg/kg, NAC 100 mg/kg (P), time 16 h",60%
same,percentage of surviving animals,"Group X: APAP 1000 mg/kg, NAC 100 mg/kg (P), time 17 h",60%
same,percentage of surviving animals,"Group X: APAP 1000 mg/kg, NAC 100 mg/kg (P), time 18 h",50%
same,percentage of surviving animals,"Group X: APAP 1000 mg/kg, NAC 100 mg/kg (P), time 20 h",40%
same,percentage of surviving animals,"Group X: APAP 1000 mg/kg, NAC 100 mg/kg (P), time 22 h",40%
same,percentage of surviving animals,"Group X: APAP 1000 mg/kg, NAC 100 mg/kg (P), time 24 h",40%
same,percentage of surviving animals,"Group XI: APAP 1000 mg/kg, NAC 200 mg/kg (P), time 0 h",100%
same,percentage of surviving animals,"Group XI: APAP 1000 mg/kg, NAC 200 mg/kg (P), time 6 h",100%
same,percentage of surviving animals,"Group XI: APAP 1000 mg/kg, NAC 200 mg/kg (P), time 8 h",100%
same,percentage of surviving animals,"Group XI: APAP 1000 mg/kg, NAC 200 mg/kg (P), time 9 h",100%
same,percentage of surviving animals,"Group XI: APAP 1000 mg/kg, NAC 200 mg/kg (P), time 10 h",100%
same,percentage of surviving animals,"Group XI: APAP 1000 mg/kg, NAC 200 mg/kg (P), time 11 h",90%
same,percentage of surviving animals,"Group XI: APAP 1000 mg/kg, NAC 200 mg/kg (P), time 12 h",90%
same,percentage of surviving animals,"Group XI: APAP 1000 mg/kg, NAC 200 mg/kg (P), time 13 h",90%
same,percentage of surviving animals,"Group XI: APAP 1000 mg/kg, NAC 200 mg/kg (P), time 14 h",90%
same,percentage of surviving animals,"Group XI: APAP 1000 mg/kg, NAC 200 mg/kg (P), time 15 h",90%
same,percentage of surviving animals,"Group XI: APAP 1000 mg/kg, NAC 200 mg/kg (P), time 16 h",80%
same,percentage of surviving animals,"Group XI: APAP 1000 mg/kg, NAC 200 mg/kg (P), time 17 h",80%
same,percentage of surviving animals,"Group XI: APAP 1000 mg/kg, NAC 200 mg/kg (P), time 18 h",60%
same,percentage of surviving animals,"Group XI: APAP 1000 mg/kg, NAC 200 mg/kg (P), time 20 h",60%
same,percentage of surviving animals,"Group XI: APAP 1000 mg/kg, NAC 200 mg/kg (P), time 22 h",60%
same,percentage of surviving animals,"Group XI: APAP 1000 mg/kg, NAC 200 mg/kg (P), time 24 h",60%
same,percentage of surviving animals,"Group XII: APAP 1000 mg/kg, NAC 300 mg/kg (P), time 0 h",100%
same,percentage of surviving animals,"Group XII: APAP 1000 mg/kg, NAC 300 mg/kg (P), time 6 h",100%
same,percentage of surviving animals,"Group XII: APAP 1000 mg/kg, NAC 300 mg/kg (P), time 8 h",100%
same,percentage of surviving animals,"Group XII: APAP 1000 mg/kg, NAC 300 mg/kg (P), time 9 h",90%
same,percentage of surviving animals,"Group XII: APAP 1000 mg/kg, NAC 300 mg/kg (P), time 10 h",90%
same,percentage of surviving animals,"Group XII: APAP 1000 mg/kg, NAC 300 mg/kg (P), time 11 h",90%
same,percentage of surviving animals,"Group XII: APAP 1000 mg/kg, NAC 300 mg/kg (P), time 12 h",90%
same,percentage of surviving animals,"Group XII: APAP 1000 mg/kg, NAC 300 mg/kg (P), time 13 h",90%
same,percentage of surviving animals,"Group XII: APAP 1000 mg/kg, NAC 300 mg/kg (P), time 14 h",90%
same,percentage of surviving animals,"Group XII: APAP 1000 mg/kg, NAC 300 mg/kg (P), time 15 h",90%
same,percentage of surviving animals,"Group XII: APAP 1000 mg/kg, NAC 300 mg/kg (P), time 16 h",90%
same,percentage of surviving animals,"Group XII: APAP 1000 mg/kg, NAC 300 mg/kg (P), time 17 h",90%
same,percentage of surviving animals,"Group XII: APAP 1000 mg/kg, NAC 300 mg/kg (P), time 18 h",80%
same,percentage of surviving animals,"Group XII: APAP 1000 mg/kg, NAC 300 mg/kg (P), time 20 h",80%
same,percentage of surviving animals,"Group XII: APAP 1000 mg/kg, NAC 300 mg/kg (P), time 22 h",80%
same,percentage of surviving animals,"Group XII: APAP 1000 mg/kg, NAC 300 mg/kg (P), time 24 h",80%
same,percentage of surviving animals,"Group XIII: APAP 1000 mg/kg, NAC 100 mg/kg (C), time 0 h",100%
same,percentage of surviving animals,"Group XIII: APAP 1000 mg/kg, NAC 100 mg/kg (C), time 6 h",100%
same,percentage of surviving animals,"Group XIII: APAP 1000 mg/kg, NAC 100 mg/kg (C), time 8 h",90%
same,percentage of surviving animals,"Group XIII: APAP 1000 mg/kg, NAC 100 mg/kg (C), time 9 h",80%
same,percentage of surviving animals,"Group XIII: APAP 1000 mg/kg, NAC 100 mg/kg (C), time 10 h",60%
same,percentage of surviving animals,"Group XIII: APAP 1000 mg/kg, NAC 100 mg/kg (C), time 11 h",50%
same,percentage of surviving animals,"Group XIII: APAP 1000 mg/kg, NAC 100 mg/kg (C), time 12 h",50%
same,percentage of surviving animals,"Group XIII: APAP 1000 mg/kg, NAC 100 mg/kg (C), time 13 h",40%
same,percentage of surviving animals,"Group XIII: APAP 1000 mg/kg, NAC 100 mg/kg (C), time 14 h",30%
same,percentage of surviving animals,"Group XIII: APAP 1000 mg/kg, NAC 100 mg/kg (C), time 15 h",20%
same,percentage of surviving animals,"Group XIII: APAP 1000 mg/kg, NAC 100 mg/kg (C), time 16 h",20%
same,percentage of surviving animals,"Group XIII: APAP 1000 mg/kg, NAC 100 mg/kg (C), time 17 h",20%
same,percentage of surviving animals,"Group XIII: APAP 1000 mg/kg, NAC 100 mg/kg (C), time 18 h",10%
same,percentage of surviving animals,"Group XIII: APAP 1000 mg/kg, NAC 100 mg/kg (C), time 20 h",10%
same,percentage of surviving animals,"Group XIII: APAP 1000 mg/kg, NAC 100 mg/kg (C), time 22 h",10%
same,percentage of surviving animals,"Group XIII: APAP 1000 mg/kg, NAC 100 mg/kg (C), time 24 h",10%
same,percentage of surviving animals,"Group XIV: APAP 1000 mg/kg, NAC 300 mg/kg (C), time 0 h",100%
same,percentage of surviving animals,"Group XIV: APAP 1000 mg/kg, NAC 300 mg/kg (C), time 6 h",100%
same,percentage of surviving animals,"Group XIV: APAP 1000 mg/kg, NAC 300 mg/kg (C), time 8 h",100%
same,percentage of surviving animals,"Group XIV: APAP 1000 mg/kg, NAC 300 mg/kg (C), time 9 h",90%
same,percentage of surviving animals,"Group XIV: APAP 1000 mg/kg, NAC 300 mg/kg (C), time 10 h",80%
same,percentage of surviving animals,"Group XIV: APAP 1000 mg/kg, NAC 300 mg/kg (C), time 11 h",80%
same,percentage of surviving animals,"Group XIV: APAP 1000 mg/kg, NAC 300 mg/kg (C), time 12 h",60%
same,percentage of surviving animals,"Group XIV: APAP 1000 mg/kg, NAC 300 mg/kg (C), time 13 h",40%
same,percentage of surviving animals,"Group XIV: APAP 1000 mg/kg, NAC 300 mg/kg (C), time 14 h",40%
same,percentage of surviving animals,"Group XIV: APAP 1000 mg/kg, NAC 300 mg/kg (C), time 15 h",40%
same,percentage of surviving animals,"Group XIV: APAP 1000 mg/kg, NAC 300 mg/kg (C), time 16 h",30%
same,percentage of surviving animals,"Group XIV: APAP 1000 mg/kg, NAC 300 mg/kg (C), time 17 h",30%
same,percentage of surviving animals,"Group XIV: APAP 1000 mg/kg, NAC 300 mg/kg (C), time 18 h",30%
same,percentage of surviving animals,"Group XIV: APAP 1000 mg/kg, NAC 300 mg/kg (C), time 20 h",20%
same,percentage of surviving animals,"Group XIV: APAP 1000 mg/kg, NAC 300 mg/kg (C), time 22 h",20%
same,percentage of surviving animals,"Group XIV: APAP 1000 mg/kg, NAC 300 mg/kg (C), time 24 h",20%
